Experimental data taken from paper PMC7792806, “Development of Second Generation Activity-Based Chemical Probes for Sirtuins” (Molecules, 2020).

Key:
Type in all cases: biochemical
SIRT6 = SIRT6 (Homo sapiens, UniProt Q8N6T7); test: Sirtuin inhibition assay (HPLC), SIRT6; design: host or cells: E. coli (inferred from b12); details: substrate H3K9Ac; 500 μM NAD+, 500 μM peptide, 10 μM sirtuin, pH 7.5, 37 °C; NI = Not inhibited
Method: (§1) Plasmids of SIRT1 (full length), SIRT2 (38-356), SIRT3 (102-399), and SIRT5 (34-302) were generous gifts from Dr. Hening Lin (Cornell University, Ithaca, NY, USA). SIRT6 was a gift from Cheryl Arrowsmith (Addgene plasmid #28271). The proteins were expressed and purified according to previously published protocols. The identity of the protein was confirmed by tryptic digestion followed by LC-MS/MS analysis performed at the Vermont Genetic Network (VGN) Proteomics Facility. Protein concentrations were determined by Bradford assay (Thermo Fisher Scientific, Rockford, IL, USA).
A typical reaction contained 500 μM NAD^+ and 500 μM peptide substrate (H3K9Ac for SIRT2, SIRT3 and SIRT6, p53K382Ac for SIRT1 and SIRT5) of varying concentrations of a small molecule probe in 100 mM phosphate buffer pH 7.5. The reactions were initiated by the addition of 10 μM of sirtuin and were incubated at 37 °C before being quenched by 8 μL of 10% TFA. The incubation time was controlled so that the conversion of substrate was less than 15%. The samples were then injected on an HPLC fitted to a Macherey-Nagel Nucleosil C18 column. NAD^+, NAM and AADPR (acetyl-ADP-ribose) peaks were resolved using a gradient of 0 to 20% methanol in 20 mM ammonium acetate. Chromatograms were analyzed at 260 nm. Reactions were quantified by integrating areas of peaks corresponding to NAD^+ and AADPR. […]

SIRT1 = biological target: T1, SIRT1 (Homo sapiens, UniProt Q96EB6); test: Sirtuin inhibition assay (HPLC), SIRT1; details: substrate p53K382Ac; 500 μM NAD+, 500 μM peptide, 10 μM sirtuin, pH 7.5, 37 °C
T1 construct: Plasmids of SIRT1 (full length); made in house
T1 sequence (Q96EB6 1-747): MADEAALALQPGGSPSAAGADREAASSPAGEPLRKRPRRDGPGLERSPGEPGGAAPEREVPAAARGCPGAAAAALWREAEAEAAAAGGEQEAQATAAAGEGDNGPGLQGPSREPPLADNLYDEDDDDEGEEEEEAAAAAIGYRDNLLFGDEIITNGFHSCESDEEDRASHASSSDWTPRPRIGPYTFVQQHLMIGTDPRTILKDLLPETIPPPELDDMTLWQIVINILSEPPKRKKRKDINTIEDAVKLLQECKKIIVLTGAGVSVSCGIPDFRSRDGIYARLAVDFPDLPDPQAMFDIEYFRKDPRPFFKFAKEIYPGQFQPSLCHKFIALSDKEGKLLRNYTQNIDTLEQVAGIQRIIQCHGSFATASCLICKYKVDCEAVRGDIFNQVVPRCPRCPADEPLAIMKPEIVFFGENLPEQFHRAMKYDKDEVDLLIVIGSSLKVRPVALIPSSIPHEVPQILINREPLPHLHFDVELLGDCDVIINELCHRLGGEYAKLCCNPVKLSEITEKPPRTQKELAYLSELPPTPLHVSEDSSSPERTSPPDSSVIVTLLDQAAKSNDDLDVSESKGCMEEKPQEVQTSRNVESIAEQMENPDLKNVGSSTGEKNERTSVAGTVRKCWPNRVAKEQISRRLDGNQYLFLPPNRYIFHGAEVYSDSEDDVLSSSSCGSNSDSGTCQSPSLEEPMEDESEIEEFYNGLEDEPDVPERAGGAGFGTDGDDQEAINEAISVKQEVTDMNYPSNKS
Method: as §1
A typical reaction contained 500 μM NAD^+ and 500 μM peptide substrate (H3K9Ac for SIRT2, SIRT3 and SIRT6, p53K382Ac for SIRT1 and SIRT5) of varying concentrations of a small molecule probe in 100 mM phosphate buffer pH 7.5. The reactions were initiated by the addition of 10 μM of sirtuin and were incubated at 37 °C before being quenched by 8 μL of 10% TFA. The incubation time was controlled so that the conversion of substrate was less than 15%. The samples were then injected on an HPLC fitted to a Macherey-Nagel Nucleosil C18 column. NAD^+, NAM and AADPR (acetyl-ADP-ribose) peaks were resolved using a gradient of 0 to 20% methanol in 20 mM ammonium acetate. Chromatograms were analyzed at 260 nm. Reactions were quantified by integrating areas of peaks corresponding to NAD^+ and AADPR. Rates were plotted as a function of small molecule probe concentration, and points were fitted to the following equation:ν(%) = ν0(%) − [ν0(%)(10^x)/(10^x + IC50)](1) where ν(%) represents the turnover rate expressed as percent enzymatic activity remaining, and ν0(%) represents the uninhibited turnover rate expressed as an enzymatic activity of 100%. The variable x represents the log[probe] in nanomolar. IC50 values were derived from this equation.

[1] = biological target: T2, wild-type SIRT6 (wtSIRT6) (Homo sapiens, UniProt Q8N6T7); test: Labeling of wild-type SIRT6
T2 construct: host or cells: E. coli (inferred from b12)
Method: Remarkably, probe 2C was also able to label individual sirtuin isoforms in cell lysates. HEK293 cells overexpressing human SIRT2 were lysed, and the lysate was subjected to the labeling by 10 μM probe 2C.
A typical labeling experiment was performed as follows: in a 0.7 mL Eppendorf tube, purified recombinant human sirtuin (10 μM) was incubated with NAD^+ (500 μM) and activity-based probe at 37 °C for 10 min. The sample was transferred to a clear-bottom 96-well plate, placed on ice, and irradiated at 365 nm with a UV-lamp in a cold room. Subsequently, ingredients of the “click-chemistry” including azide-fluor 545, CuSO4, reducing agent (tris(2-carboxyethyl)phosphine, TCEP) and stabilizing agent (tris[(1-benzyl-1H-1,2,3-triazol-4-yl)methyl]amine, TBTA) were added, and the sample was gently agitated at 250 rpm on a microshaker at room temperature for 30 min. Then, the sample was resolved by SDS-PAGE. To […] the signal to noise ratio, the gel was destained to eliminate non-specific binding of free dyes. This was done in a mixture of methanol/distilled water/acetic acid (v/v/v = 4/5/1) at ambient temperature for 4 h. Then, destained gel was analyzed with in-gel fluorescence scanning using a Biorad ChemiDoc MP imager (excitation 532 nm, 580 nm cut-off filter and 30 nm band-pass). Finally, Coomassie blue staining was applied to provide loading control.

Sequence of SIRT6 (Q8N6T7 whole entry): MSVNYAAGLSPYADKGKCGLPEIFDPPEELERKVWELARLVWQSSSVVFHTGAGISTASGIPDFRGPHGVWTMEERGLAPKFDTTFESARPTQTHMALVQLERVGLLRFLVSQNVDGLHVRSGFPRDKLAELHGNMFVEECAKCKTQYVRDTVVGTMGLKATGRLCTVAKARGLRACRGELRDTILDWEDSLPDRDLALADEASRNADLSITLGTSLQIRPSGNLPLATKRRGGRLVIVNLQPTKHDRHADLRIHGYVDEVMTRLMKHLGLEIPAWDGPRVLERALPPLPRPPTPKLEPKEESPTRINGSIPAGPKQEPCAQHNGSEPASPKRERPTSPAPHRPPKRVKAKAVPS
T2 sequence (Q8N6T7 whole entry): as above

IC50 (SIRT6) [mM] | IC50 (SIRT1) [mM] | Structure (SMILES) | labeling of wtSIRT6 [1]
> 5 | > 2 | C#CCCCC1(CCC(=O)N[C@@H](CCCCNC(=S)CCC(=O)O)C(=O)N[C@@H](C)C(=O)N[C@@H](C)C(=O)OC)N=N1 [Probe 2B] | 
 |  | C#CCCCC1(CCC(=O)N[C@@H](CCCCNC(=S)CCCCCCCCCCCCC)C(=O)N[C@@H](C)C(=O)N[C@@H](C)C(=O)OC)N=N1 [Probe 2C] | concentration-dependent labeling of wild-type SIRT6
